From US9108944B2, “Androgen receptor modulators and uses thereof” (ARAGON PHARMACEUTICALS, INC., priority 2010, dated 2015)

Target: T1, AR-VP16 (Homo sapiens, UniProt P10275)
T1 sequence (P10275 560-920 limits assumed): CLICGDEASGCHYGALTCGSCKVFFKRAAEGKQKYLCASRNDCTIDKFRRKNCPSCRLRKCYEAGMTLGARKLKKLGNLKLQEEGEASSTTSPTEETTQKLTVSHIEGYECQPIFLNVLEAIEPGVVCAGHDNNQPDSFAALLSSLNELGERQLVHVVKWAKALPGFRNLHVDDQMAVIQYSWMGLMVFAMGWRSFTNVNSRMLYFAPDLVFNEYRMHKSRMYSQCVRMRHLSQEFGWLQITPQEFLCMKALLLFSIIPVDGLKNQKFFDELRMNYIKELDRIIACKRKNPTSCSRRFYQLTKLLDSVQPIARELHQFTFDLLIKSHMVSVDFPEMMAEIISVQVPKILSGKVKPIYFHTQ
Assay: AR-VP16 DNA Binding Assay, antagonist mode (HepG2 cells, 0.1 nM R1881)
Assay type: cell-based
Experimental: Cells were transiently transfected using Lipofectin (Life Technologies) according to the manufacturer's protocol. […] Transfected cells were incubated overnight then treated with ligand. […] For antagonist assays, the compounds were serially diluted and 50 μL of compound with RPMI supplemented with charcoal stripped serum plus methyltrienolone (R1881) were added to the cells. The final R1881 concentration used in the antagonist assays was 0.1 nM. Following 48 hour incubation the medium was removed and the cells were lysed in 40 μL of lysis buffer (25 mM Tris Phosphate, 2 mM CDTA, 10% Glycerol, 0.5% Triton X-100, 2 mM DTT).

Q: How did the IC50 turn out when `N#Cc1ncc(N2C(=O)C3(CCC3)N(c3ccc(Br)c(F)c3)C2=S)cc1C(F)(F)F` [Compound 4, 5-(5-(4-Bromo-3-fluorophenyl)-8-oxo-6-thioxo-5,7-diazaspiro[3.4]octan-7-yl)-3-(trifluoromethyl)picolinonitrile] was run?
A: Its IC50 is less than 1000 nM.

Q: How did the IC50 turn out when `N#Cc1ncc(N2C(=O)C3(CCC3)N(c3ccc4ccccc4c3)C2=S)cc1C(F)(F)F` [Compound 9, 5-(5-(Naphthalen-2-yl)-8-oxo-6-thioxo-5,7-diazaspiro[3.4]octan-7-yl)-3-(trifluoromethyl)picolinonitrile] was run?
A: Its IC50 is less than 1000 nM.

Q: `N#Cc1ncc(N2C(=O)C3(CCC3)N(c3ccc(-c4ccccc4)cc3)C2=S)cc1C(F)(F)F` [Compound 13, 5-(5-([1,1′-Biphenyl]-4-yl)-8-oxo-6-thioxo-5,7-diazaspiro[3.4]octan-7-yl)-3-(trifluoromethyl)picolinonitrile] was tested. Which IC50 did it give?
A: Its IC50 is less than 1000 nM.

Q: `N#Cc1ncc(N2C(=O)C3(CCC3)N(c3ccc(-c4cccnc4)cc3)C2=S)cc1C(F)(F)F` [Compound 17, 5-(8-Oxo-5-(4-(pyridin-3-yl)phenyl)-6-thioxo-5,7-diazaspiro[3.4]octan-7-yl)-3-(trifluoromethyl)picolinonitrile] was tested. Which IC50 did it give?
A: The IC50 was less than 1000 nM.

Q: Which IC50 does the source give for `N#Cc1ncc(N2C(=O)C3(CCC3)N(c3cccnc3)C2=S)cc1C(F)(F)F` [Compound 19, 5-(8-Oxo-5-(pyridin-3-yl)-6-thioxo-5,7-diazaspiro[3.4]octan-7-yl)-3-(trifluoromethyl)picolinonitrile] here?
A: The IC50 was greater than 1000 nM.

Q: Which IC50 does the source give for `Cc1cccc(N2C(=S)N(c3cnc(C#N)c(C(F)(F)F)c3)C(=O)C23CCC3)c1` [Compound 21, 5-(8-Oxo-6-thioxo-5-(m-tolyl)-5,7-diazaspiro[3.4]octan-7-yl)-3-(trifluoromethyl)picolinonitrile] here?
A: The IC50 was less than 1000 nM.

Q: With `Cc1ccc(N2C(=S)N(c3ccc4nnc(C(F)(F)F)n4n3)C(=O)C23CCC3)cc1` [Compound 30, 6-Thioxo-5-(p-tolyl)-7-(3-(trifluoromethyl)-[1,2,4]triazolo[4,3-b]pyridazin-6-yl)-5,7-diazaspiro[3.4]octan-8-one] as the compound, how does the IC50 read?
A: The IC50 was less than 1000 nM.

Q: For `Cc1ccc(N2C(=S)N(c3ccc(C#N)c4ncccc34)C(=O)C23CCC3)cc1` [Compound 36, 5-(8-Oxo-6-thioxo-5-(p-tolyl)-5,7-diazaspiro[3.4]octan-7-yl)quinoline-8-carbonitrile], which IC50 is on record?
A: Its IC50 is less than 1000 nM.

Q: `CNC(=O)c1ccc(N2C(=S)N(c3ccc(C#N)c4ncccc34)C(=O)C23CCC3)cc1F` [Compound 37, 4-(7-(8-Cyanoquinolin-5-yl)-8-oxo-6-thioxo-5,7-diazaspiro[3.4]octan-5-yl)-2-fluoro-N-methylbenzamide] was tested. Which IC50 did it give?
A: Its IC50 is less than 1000 nM.

Q: For `N#Cc1ncc(N2C(=O)C3(CCC3)N(c3ccc(Oc4ccccn4)cc3)C2=S)cc1C(F)(F)F` [Compound 41, 5-(8-Oxo-5-(4-(pyridin-2-yloxy)phenyl)-6-thioxo-5,7-diazaspiro[3.4]octan-7-yl)-3-(trifluoromethyl)picolinonitrile], which IC50 is on record?
A: The IC50 was less than 1000 nM.

Q: For `N#Cc1ncc(N2C(=O)C3(CCC3)N(c3ccc(Oc4cncnc4)cc3)C2=S)cc1C(F)(F)F` [Compound 42, 5-(8-Oxo-5-(4-(pyrimidin-5-yloxy)phenyl)-6-thioxo-5,7-diazaspiro[3.4]octan-7-yl)-3-(trifluoromethyl)picolinonitrile], which IC50 is on record?
A: The IC50 was less than 1000 nM.

Q: For `CNC(=O)c1ccc(N2C(=S)N(c3cnc(C#N)c(C(F)(F)F)c3)C(=O)C2(C)C)cc1F` [Compound 43, 4-(3-(6-Cyano-5-(trifluoromethyl)pyridin-3-yl)-5,5-dimethyl-4-oxo-2-thioxoimidazolidin-1-yl)-2-fluoro-N-methylbenzamide], which IC50 is on record?
A: The IC50 was less than 1000 nM.

Q: With `CNC(=O)c1ccc(N2C(=S)N(c3cnc(C#N)c(C)c3)C(=O)C2(C)C)cc1F` [Compound 47, 4-(3-(6-Cyano-5-methylpyridin-3-yl)-5,5-dimethyl-4-oxo-2-thioxoimidazolidin-1-yl)-2-fluoro-N-methylbenzamide] as the compound, how does the IC50 read?
A: Its IC50 is less than 1000 nM.

Q: For `N#Cc1ncc(N2C(=O)C3(CCC3)N(c3ccccc3)C2=S)cc1C(F)(F)F` [Compound 48, 5-(8-Oxo-5-phenyl-6-thioxo-5,7-diazaspiro[3.4]octan-7-yl)-3-(trifluoromethyl)picolinonitrile], which IC50 is on record?
A: Its IC50 is less than 1000 nM.

Q: `N#Cc1ncc(N2C(=O)C3(CCC3)N(c3ccc4ccncc4c3)C2=S)cc1C(F)(F)F` [Compound 52, 5-(5-(Isoquinolin-7-yl)-8-oxo-6-thioxo-5,7-diazaspiro[3.4]octan-7-yl)-3-(trifluoromethyl)picolinonitrile] was tested. Which IC50 did it give?
A: The IC50 was less than 1000 nM.

Q: `N#Cc1ncc(N2C(=O)C3(CCC3)N(C3CCCCC3)C2=S)cc1C(F)(F)F` [Compound 53, 5-(5-Cyclohexyl-8-oxo-6-thioxo-5,7-diazaspiro[3.4]octan-7-yl)-3-(trifluoromethyl)picolinonitrile] was tested. Which IC50 did it give?
A: The IC50 was less than 1000 nM.

Q: With `N#Cc1ccc(N2C(=O)C3(CCC3)N(c3ccc(O)c(F)c3)C2=S)c2cccnc12` [Compound 55, 5-(5-(3-Fluoro-4-hydroxyphenyl)-8-oxo-6-thioxo-5,7-diazaspiro[3.4]octan-7-yl)quinoline-8-carbonitrile] as the compound, how does the IC50 read?
A: The IC50 was less than 1000 nM.

Q: With `N#Cc1ccc(N2C(=S)N(c3cnc(C#N)c(C(F)(F)F)c3)C(=O)C23CCC3)cc1F` [Compound 56, 5-(5-(4-Cyano-3-fluorophenyl)-8-oxo-6-thioxo-5,7-diazaspiro[3.4]octan-7-yl)-3-(trifluoromethyl)picolinonitrile] as the compound, how does the IC50 read?
A: Its IC50 is less than 1000 nM.

Q: For `CNC(=O)c1ccc(N2C(=S)N(c3cnc(C#N)c(Cl)c3)C(=O)C23CCC3)cc1F` [Compound 58, 4-(7-(5-Chloro-6-cyanopyridin-3-yl)-8-oxo-6-thioxo-5,7-diazaspiro[3.4]octan-5-yl)-2-fluoro-N-methylbenzamide], which IC50 is on record?
A: The IC50 was less than 1000 nM.

Q: With `N#Cc1ncc(N2C(=O)C3(CCC3)N(c3ccc(O)cc3F)C2=S)cc1C(F)(F)F` [Compound 64, 5-(5-(2-Fluoro-4-hydroxyphenyl)-8-oxo-6-thioxo-5,7-diazaspiro[3.4]octan-7-yl)-3-(trifluoromethyl)picolinonitrile] as the compound, how does the IC50 read?
A: Its IC50 is less than 1000 nM.

Q: Which IC50 does the source give for `CNC(=O)c1ccc(N2C(=S)N(c3cnc(C#N)c4ccccc34)C(=O)C23CCC3)cc1F` [Compound 66, 4-(7-(1-Cyanoisoquinolin-4-yl)-8-oxo-6-thioxo-5,7-diazaspiro[3.4]octan-5-yl)-2-fluoro-N-methylbenzamide] here?
A: The IC50 was less than 1000 nM.

Q: Which IC50 does the source give for `N#Cc1ncc(N2C(=O)C3(CCC3)N(c3cccc(CO)c3)C2=S)cc1C(F)(F)F` [Compound 67, 5-(5-(3-(Hydroxymethyl)phenyl)-8-oxo-6-thioxo-5,7-diazaspiro[3.4]octan-7-yl)-3-(trifluoromethyl)picolinonitrile] here?
A: The IC50 was less than 1000 nM.

Q: Which IC50 does the source give for `N#Cc1ccc(N2C(=S)N(c3cnc(C#N)c(C(F)(F)F)c3)C(=O)C23CCC3)c(F)c1` [Compound 70, 5-(5-(4-Cyano-2-fluorophenyl)-8-oxo-6-thioxo-5,7-diazaspiro[3.4]octan-7-yl)-3-(trifluoromethyl)picolinonitrile] here?
A: The IC50 was less than 1000 nM.

Q: For `N#Cc1ncc(N2C(=O)C3(CCC3)N(c3cc(F)ccc3F)C2=S)cc1C(F)(F)F` [Compound 74, 5-(5-(2,5-Difluorophenyl)-8-oxo-6-thioxo-5,7-diazaspiro[3.4]octan-7-yl)-3-(trifluoromethyl)picolinonitrile], which IC50 is on record?
A: Its IC50 is less than 1000 nM.

Q: With `N#Cc1ncc(N2C(=O)C3(CCC3)N(c3c(F)ccc(F)c3F)C2=S)cc1C(F)(F)F` [Compound 75, 5-(8-Oxo-6-thioxo-5-(2,3,6-trifluorophenyl)-5,7-diazaspiro[3.4]octan-7-yl)-3-(trifluoromethyl)picolinonitrile] as the compound, how does the IC50 read?
A: The IC50 was less than 1000 nM.

Q: How did the IC50 turn out when `CNC(=O)c1ccc(N2C(=S)N(c3cnc(C#N)c(C(F)(F)F)c3)C(=O)C23CCC3)cc1` [Compound 79, 4-(7-(6-Cyano-5-(trifluoromethyl)pyridin-3-yl)-8-oxo-6-thioxo-5,7-diazaspiro[3.4]octan-5-yl)-N-methylbenzamide] was run?
A: The IC50 was less than 1000 nM.

Q: Which IC50 does the source give for `CS(=O)(=O)c1ccc(N2C(=S)N(c3cnc(C#N)c(C(F)(F)F)c3)C(=O)C23CCC3)cc1` [Compound 80, 5-(5-(4-(Methylsulfonyl)phenyl)-8-oxo-6-thioxo-5,7-diazaspiro[3.4]octan-7-yl)-3-(trifluoromethyl)picolinonitrile] here?
A: Its IC50 is less than 1000 nM.

Q: For `Cc1ccc(N2C(=S)N(c3ccc(C#N)n4nccc34)C(=O)C23CCC3)cc1` [Compound 82, 4-(8-Oxo-6-thioxo-5-(p-tolyl)-5,7-diazaspiro[3.4]octan-7-yl)pyrazolo[1,5-a]pyridine-7-carbonitrile], which IC50 is on record?
A: The IC50 was less than 1000 nM.

Q: Which IC50 does the source give for `N#Cc1ncc(N2C(=O)C3(CCC3)N(c3ccc4[nH]ncc4c3)C2=S)cc1C(F)(F)F` [Compound 87, 5-(5-(1H-Indazol-5-yl)-8-oxo-6-thioxo-5,7-diazaspiro[3.4]octan-7-yl)-3-(trifluoromethyl)picolinonitrile] here?
A: The IC50 was less than 1000 nM.

Q: How did the IC50 turn out when `CN(Cc1ccncc1)Cc1ccc(N2C(=S)N(c3cnc(C#N)c(C(F)(F)F)c3)C(=O)C23CCC3)cc1` [Compound 92, 5-(5-(4-((Methyl(pyridin-4-ylmethyl)amino)methyl)phenyl)-8-oxo-6-thioxo-5,7-diazaspiro[3.4]octan-7-yl)-3-(trifluoromethyl)picolinonitrile] was run?
A: The IC50 was less than 1000 nM.

Q: Which IC50 does the source give for `Cc1ccc(N2C(=S)N(c3ccc(C#N)c4ccccc34)C(=O)C23CCC3)cc1` [Compound 94, 4-(8-Oxo-6-thioxo-5-(p-tolyl)-5,7-diazaspiro[3.4]octan-7-yl)-1-naphthonitrile] here?
A: Its IC50 is less than 1000 nM.
